From patent EP0908457B1, “3-(1,2-benzisothiazol- and isoxazol-5-Y1)-2,4(1H,3H)-pyrimidinedione or thione and 3-(1,2-benzisothiazol- and isoxazol-5-y1)-4(3H)-pyrimidinone or thione herbicidal agents” (BASF AKTIENGESELLSCHAFT, priority 1997, dated 1999)

Assays:
[1] = test system: Echinochloa oryzoides (Ard.) Fritsch.; experiment: Preemergence weed control under flooded paddy conditions, ECHORC (Watergrass (Calif.)); type: in vivo; details: preemergence, flooded paddy, rated three to four weeks after treatment; also: meaning of each grade not given here
Cyperus iria [2] = experiment: Preemergence weed control under flooded paddy conditions, CYPIR (Rice Flatsedge); type: in vivo; details: preemergence, flooded paddy, rated three to four weeks after treatment; also: meaning of each grade not given here
[3] = test system: Cyperus serotinus, Rottb.; experiment: Preemergence weed control under flooded paddy conditions, CYPSE (Flatsedge); type: in vivo; details: preemergence, rated three to four weeks after treatment; also: meaning of each grade not given here
[4] = test system: Monochoria vaginalis, Presl.; experiment: Preemergence weed control under flooded paddy conditions, MOOVA (Monochoria); type: in vivo; details: preemergence, flooded paddy, rated three to four weeks after treatment; also: meaning of each grade not given here
Sagittaria pygmaea, L. [5] = experiment: Preemergence weed control under flooded paddy conditions, SAGPY (Arrowhead (Pygmaea)); type: in vivo; details: preemergence, flooded paddy, rated three to four weeks after treatment; also: meaning of each grade not given here
[6] = test system: Echinochloa oryzoides (Ard.) Fritsch.; experiment: Postemergence weed control under flooded paddy conditions, ECHORC (Watergrass (Calif.)); type: in vivo; details: rated three to four weeks after treatment
Cyperus iria [7] = experiment: Postemergence weed control under flooded paddy conditions, CYPIR (Rice Flatsedge); type: in vivo; details: rated three to four weeks after treatment
[8] = test system: Cyperus serotinus, Rottb.; experiment: Postemergence weed control under flooded paddy conditions, CYPSE (Flatsedge); type: in vivo; details: rated three to four weeks after treatment
[9] = test system: Monochoria vaginalis, Presl.; experiment: Postemergence weed control under flooded paddy conditions, MOOVA (Monochoria); type: in vivo; details: rated three to four weeks after treatment
Sagittaria pygmaea, L. [10] = experiment: Postemergence weed control under flooded paddy conditions, SAGPY (Arrowhead (Pygmaea)); type: in vivo; details: rated three to four weeks after treatment
[11] = test system: Oryza sativa, (L.) Tebonnet; experiment: Rice tolerance to post-transplant applications under flooded paddy conditions (Example 187), ORYSAT (Rice, Tebonnet); details: rated three to four weeks after treatment
[12] = test system: Oryza sativa, (L.) Tebonnet; experiment: Rice tolerance to post-transplant applications under flooded paddy conditions (Example 188), ORYSAT (Rice, Tebonnet); details: rated three to four weeks after treatment

Structure (SMILES): COC(=O)COc1ccc(C)cc1-c1nsc2ccc(-n3c(=O)cc(C(F)(F)F)n(C)c3=O)cc12 [Example 2, Methyl {{2-{5-[3,6-dihydro-3-methyl-4-(trifluoromethyl)-2,6-dioxo-1(2H)-pyrimidinyl]-1,2-benzisothiazol-3-yl}-p-tolyl}oxy}acetate]
- herbicidal effect rating, ECHORC ([1]; 0.0313 kg/ha): 9.0
- herbicidal effect rating, ECHORC ([1]; 0.0625 kg/ha): 9.0
- herbicidal effect rating, ECHORC ([1]; 0.1250 kg/ha): 9.0
- herbicidal effect rating, ECHORC ([1]; 0.2500 kg/ha): 9.0
- herbicidal effect rating, ECHORC ([1]; 0.5000 kg/ha): 9.0
- herbicidal effect rating, CYPIR (Cyperus iria [2]; 0.0313 kg/ha): 8.0
- herbicidal effect rating, CYPIR (Cyperus iria [2]; 0.0625 kg/ha): 9.0
- herbicidal effect rating, CYPIR (Cyperus iria [2]; 0.1250 kg/ha): 9.0
- herbicidal effect rating, CYPIR (Cyperus iria [2]; 0.2500 kg/ha): 9.0
- herbicidal effect rating, CYPIR (Cyperus iria [2]; 0.5000 kg/ha): 9.0
- herbicidal effect rating, CYPSE ([3]; 0.0313 kg/ha): 0.0
- herbicidal effect rating, CYPSE ([3]; 0.0625 kg/ha): 0.0
- herbicidal effect rating, CYPSE ([3]; 0.1250 kg/ha): 0.0
- herbicidal effect rating, CYPSE ([3]; 0.2500 kg/ha): 0.0
- herbicidal effect rating, CYPSE ([3]; 0.5000 kg/ha): 0.0
- herbicidal effect rating, MOOVA ([4]; 0.0313 kg/ha): 7.0
- herbicidal effect rating, MOOVA ([4]; 0.0625 kg/ha): 9.0
- herbicidal effect rating, MOOVA ([4]; 0.1250 kg/ha): 9.0
- herbicidal effect rating, MOOVA ([4]; 0.2500 kg/ha): 9.0
- herbicidal effect rating, MOOVA ([4]; 0.5000 kg/ha): 9.0
- herbicidal effect rating, SAGPY (Sagittaria pygmaea, L. [5]; 0.0313 kg/ha): 0.0
- herbicidal effect rating, SAGPY (Sagittaria pygmaea, L. [5]; 0.0625 kg/ha): 0.0
- herbicidal effect rating, SAGPY (Sagittaria pygmaea, L. [5]; 0.1250 kg/ha): 2.0
- herbicidal effect rating, SAGPY (Sagittaria pygmaea, L. [5]; 0.2500 kg/ha): 4.0
- herbicidal effect rating, SAGPY (Sagittaria pygmaea, L. [5]; 0.5000 kg/ha): 9.0
- herbicidal effect rating, ECHORC ([6]; Rate 0.0313 kg/ha): 4.0
- herbicidal effect rating, ECHORC ([6]; Rate 0.0625 kg/ha): 4.0
- herbicidal effect rating, ECHORC ([6]; Rate 0.1250 kg/ha): 7.0
- herbicidal effect rating, ECHORC ([6]; Rate 0.2500 kg/ha): 9.0
- herbicidal effect rating, ECHORC ([6]; Rate 0.5000 kg/ha): 9.0
- herbicidal effect rating, CYPIR (Cyperus iria [7]; Rate 0.0313 kg/ha): 9.0
- herbicidal effect rating, CYPIR (Cyperus iria [7]; Rate 0.0625 kg/ha): 9.0
- herbicidal effect rating, CYPIR (Cyperus iria [7]; Rate 0.1250 kg/ha): 9.0
- herbicidal effect rating, CYPIR (Cyperus iria [7]; Rate 0.2500 kg/ha): 9.0
- herbicidal effect rating, CYPIR (Cyperus iria [7]; Rate 0.5000 kg/ha): 9.0
- herbicidal effect rating, CYPSE ([8]; Rate 0.0313 kg/ha): 0.0
- herbicidal effect rating, CYPSE ([8]; Rate 0.0625 kg/ha): 0.0
- herbicidal effect rating, CYPSE ([8]; Rate 0.1250 kg/ha): 0.0
- herbicidal effect rating, CYPSE ([8]; Rate 0.2500 kg/ha): 0.0
- herbicidal effect rating, CYPSE ([8]; Rate 0.5000 kg/ha): 0.0
- herbicidal effect rating, MOOVA ([9]; Rate 0.0313 kg/ha): 9.0
- herbicidal effect rating, MOOVA ([9]; Rate 0.0625 kg/ha): 9.0
- herbicidal effect rating, MOOVA ([9]; Rate 0.1250 kg/ha): 9.0
- herbicidal effect rating, MOOVA ([9]; Rate 0.2500 kg/ha): 9.0
- herbicidal effect rating, MOOVA ([9]; Rate 0.5000 kg/ha): 9.0
- herbicidal effect rating, SAGPY (Sagittaria pygmaea, L. [10]; Rate 0.0313 kg/ha): 0.0
- herbicidal effect rating, SAGPY (Sagittaria pygmaea, L. [10]; Rate 0.0625 kg/ha): 0.0
- herbicidal effect rating, SAGPY (Sagittaria pygmaea, L. [10]; Rate 0.1250 kg/ha): 0.0
- herbicidal effect rating, SAGPY (Sagittaria pygmaea, L. [10]; Rate 0.2500 kg/ha): 2.0
- herbicidal effect rating, SAGPY (Sagittaria pygmaea, L. [10]; Rate 0.5000 kg/ha): 4.0
- herbicidal effect rating, ORYSAT (rice tolerance) ([11]; 0.0313 kg/ha): 2.0
- herbicidal effect rating, ORYSAT (rice tolerance) ([11]; 0.0625 kg/ha): 3.0
- herbicidal effect rating, ORYSAT (rice tolerance) ([11]; 0.1250 kg/ha): 3.0
- herbicidal effect rating, ORYSAT (rice tolerance) ([11]; 0.2500 kg/ha): 5.0
- herbicidal effect rating, ORYSAT (rice tolerance) ([11]; 0.5000 kg/ha): 9.0
- herbicidal effect rating, ORYSAT (rice tolerance) ([12]; Rate 0.0313 kg/ha): 2.0
- herbicidal effect rating, ORYSAT (rice tolerance) ([12]; Rate 0.0625 kg/ha): 2.0
- herbicidal effect rating, ORYSAT (rice tolerance) ([12]; Rate 0.1250 kg/ha): 3.0
- herbicidal effect rating, ORYSAT (rice tolerance) ([12]; Rate 0.2500 kg/ha): 7.0
- herbicidal effect rating, ORYSAT (rice tolerance) ([12]; Rate 0.5000 kg/ha): 8.0
